Laboratory results as given in US20020132030A1, “Composition and method for prolonging the useful life of enteral feeding tubes” (priority 1999, published 2002).

Tests used:
[1] = system: Bacillus stearothermophilus; assay: Challenge study using combinations of 4 GRAS antimicrobial agents, Example 2; assay type: cell-based
Procedure: (§1) A challenge study is done on commercially sterile product containing combinations of 4 GRAS antimicrobial agents: methyl paraben, propyl paraben, diacetyl, and natamycin. Ten different matrices are tested against 6 different organisms: A. niger, B. stearotherm, C. albicans, E. cloacae, L. Leichmanii, and S. aureus.

[2] = system: Enterobacter cloacae; assay: as above; assay type: cell-based; details: 0.2%
Procedure: as §1

[3] = system: Lactobacillus leichmanni; assay: as above; assay type: cell-based; details: 0.2%
Procedure: as §1

[4] = system: Candida albicans; assay: as above; assay type: cell-based; details: 0.2%
Procedure: as §1

[5] = system: Aspergillus niger; assay: as above; assay type: cell-based; details: for effectiveness against growth of Aspergillus niger: 0.2%
Procedure: as §1

[6] = system: 6 different organisms: A. niger, B. stearotherm, C. albicans, E. cloacae, L. Leichmanii, and S. aureus; assay: Challenge study using combinations, overall summary over all organisms, Example 2; assay type: cell-based; details: for synergistic effect: in combination with one of the parabens
Procedure: as §1

[7] = system: Enterobacter cloacae; assay: Paraben challenge in commercially sterile product (Isosource), Example 1; assay type: cell-based; details: 0.1% in Isosource; for Inhibition of Enterobacter cloacae: 24 hours
Procedure: (§2) Commercially sterile product (Isosource®) with 0.1% methyl or propyl paraben is prepared. Organisms were challenged in both variations at their optimum growth temperature and room temperature (RT). The populations are determined at different time intervals and compared to a spiked control without the parabens.

[8] = system: Enterobacter cloacae; assay: Challenge of propyl paraben, sodium benzoate, potassium sorbate singly and in combinations in Isosource HN, Example 4; assay type: cell-based; details: 0.13% propyl paraben, 0.1% sodium benzoate, 0.1% potassium sorbate in Isosource HN
Procedure: (§3) The antimicrobials, propyl paraben, sodium benzoate, and potassium sorbate are challenged singly, and in combinations, against 5 organisms.
(§4) Isosource HN® is packaged and retorted with the allowable FDA limits. Three samples, A, B, or C are prepared, having, respectively, 0.13% propyl paraben (A), 0.1% sodium benzoate (B), and 0.1% potassium sorbate (C). Additional samples D, E, and F are mixtures of A & B, A & C, and A & B & C. Three control samples: G having 0.26% ethanol; H having no preservatives and 1, a blank control are also prepared. A 350-ml aliquot of each retorted product is transferred to a sterile flask and inoculated with one of the designated organisms. A like trial is initiated for each of five organisms, Aspergillus niger, Candida albicans, Enterobacter cloacae, Staphylococcus aureus, and Lactobacillus delbrueckii. These organisms are inoculated, respectively, at 44 organisms/ml product; 2 organisms/ml product; 2 organisms/ml product; 4.1 organisms/ml product, and 30 organisms/ml product. An ethanol control is included for all the tests because it is used as the solvent carrier for paraben. An inoculated control with no inhibitors is also used for comparison. The samples are incubated at the appropriate temperature for optimum growth, and aliquots are pulled for testing at the designated intervals. Results are read and recorded as the population per milliliter of sample tested.

[9] = system: Candida albicans; assay: as above; assay type: cell-based; details: 0.13% propyl paraben, 0.1% sodium benzoate, 0.1% potassium sorbate in Isosource HN
Procedure: as §3, §4

[10] = system: Staphylococus aureus; assay: Challenge study using combinations of 4 GRAS antimicrobial agents, Example 2; assay type: cell-based
Procedure: as §1

[11] = system: Aspergillus niger; assay: Challenge of propyl paraben, sodium benzoate, potassium sorbate singly and in combinations in Isosource HN, Example 4; assay type: cell-based
Procedure: as §3, §4

[12] = system: 5 organisms; assay: Challenge of three antimicrobials, overall summary over 5 organisms, Example 4; assay type: cell-based; details: 0.13% propyl paraben, 0.1% sodium benzoate, 0.1% potassium sorbate in Isosource HN
Procedure: as §3
as §4, with “The samples are incubated at the appropriate temperature for optimum growth, and aliquots are pulled for testing at the designated intervals.” left out

[13] = system: Candida albicans; assay: Feeding tube lifetime (clogging) test in vitro, Example 3; details: 0.1% in formula, feeding tube inoculated with 100 CFU Candida albicans, approximately 30° C.
Procedure: Feeding solution is perfused through a feeding tube and maintained at approximately 30° C. during the test, which may last several days or weeks. At the time the test is begun the solution within the feeding tube is inoculated with 100 CFU of Candida albicans. After a few hours of incubation (no flow in the tube), perfusion is started and continued until the tube becomes clogged due to overgrowth of the microorganisms.

[14] = system: Candida albicans; assay: Paraben challenge in commercially sterile product (Isosource), Example 1; assay type: cell-based; details: 0.1% in Isosource
Procedure: as §2

Structure (SMILES): COC(=O)c1ccc(O)cc1 [methyl paraben]
- inhibition of Bacillus stearothermophilus growth [1]: greatest amount of inhibition
- effectiveness alone against Bacillus ([1]; alone, summary statement): very effective
- effect on Enterobacter cloacae growth ([2]; first 24 hours): slows growth slightly
- effect on Enterobacter cloacae growth ([2]; otherwise (other than first 24 hours)): uninhibited
- effectiveness against Lactobacillus leichmanni [3]: effective
- inhibition of Candida albicans [4]: slight inhibitory effect
- effectiveness against growth of Aspergillus niger [5]: most effective
- effectiveness alone against Aspergillus ([5]; alone, summary statement): very effective
- inhibition of the other organisms ([6]; alone): slightly inhibitory on three others
- Inhibition of Enterobacter cloacae ([7]; 35° C.): dramatic
- difference in population compared to the control ([7]; 35° C., 48 hours): 0.5 logs
- Inhibition of Enterobacter cloacae ([7]; room temperature): slight inhibition
- growth lower than the propyl paraben sample ([7]; room temperature, 48 hours): 1.5 logs

Structure (SMILES): C[C@@H]1C/C=C/C=C/C=C/C=C/[C@H](O[C@@H]2O[C@H](C)[C@@H](O)[C@H](N)[C@@H]2O)C[C@@H]2O[C@](O)(C[C@@H](O)C[C@H]3O[C@@H]3/C=C/C(=O)O1)C[C@H](O)[C@H]2C(=O)O [natamycin]
- effectiveness alone compared with the parabens ([6]; alone): not as effective alone as the parabens
- synergistic effect [6]: does not contribute any synergistic effect

Structure (SMILES): C/C=C/C=C/C(=O)[O-].[K+] [Potassium sorbate, potassium sorbate]
- Inhibition of Enterobacter cloacae [8]: most effective agent alone
- inhibition of Candida albicans [9]: not effective

Structure (SMILES): CCCOC(=O)c1ccc(O)cc1 [propyl paraben]
- inhibition against S. aureus ([10]; 0.2% propyl paraben, summary statement): slight inhibition
- inhibitory effect on Staphylococus aureus ([10]; 0.2%, first 24 hours): slight inhibitory effect
- effectiveness against Lactobacillus leichmanni [3]: effective
- inhibition of Candida albicans [4]: good inhibition
- effectiveness against growth of Aspergillus niger [5]: most effective
- organisms showing good inhibition ([6]; 0.2%): good inhibition of three out of the six organisms
- overall inhibitory effectiveness among agents ([6]; 0.2%): most effective inhibitory agent overall
- Aspergillus niger growth inhibition ([11]; 0.13% propyl paraben in Isosource HN, compared with the other antimicrobials): inhibited most
- spore growth of Aspergillus niger ([11]; 7 days): do not exhibit spore growth
- overall effectiveness over the five challenge organisms [12]: more effective against 4 of the organisms than either of the other 2 antimicrobials alone
- extension of the time when clogging occurred beyond that attained with no paraben [13]: 1 to 2 weeks
- lower CFU/ml of Candida albicans than the control ([14]; 7 days): 2-3 log cycle
- difference in Candida albicans CFU/ml from the control ([14]; 14 days): < 2 logs

Structure (SMILES): CC(=O)C(C)=O [diacetyl]
- effectiveness alone compared with the parabens ([6]; alone): not as effective alone as the parabens
- synergistic effect [6]: does not contribute any synergistic effect
